Assay results published in PubChem BioAssay AID248 (DTP/NCI, 2004).
“And” between values parts separate entries of the source, which are not always exact repeats. Equal values may be shown once. Toxic doses and inconclusive results are not listed. Cut-off read from the data, not from the text of the source: active = T/C of 150% or more; inactive = T/C below 125%.

Tested on: L1210 leukemia ip in BDF1 mice, survival T/C
Experiment: NCI In Vivo Anticancer Drug Screen. Data for tumor model L1210 Leukemia (intraperitoneal) in B6D2F1 (BDF1) mice
Details: endpoint: mean survival time, higher = longer survival
Summary of the method: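 Tumor was transplanted into mice, which were then dosed with test compound or vehicle alone. Survival was recorded for each group, and the treated figure was expressed relative to the control figure.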

[1] = dose: 100.0 mg/kg/injection, schedule: Q04DX003 (ip), vehicle: saline
[2] = dose: 200.0 mg/kg/injection, schedule: Q04DX003 (ip), vehicle: saline
[3] = dose: 400.0 mg/kg/injection, schedule: Q04DX003 (ip), vehicle: saline
[4] = dose: 50.0 mg/kg/injection, schedule: Q01DX009 (ip), vehicle: other
[5] = dose: 100.0 mg/kg/injection, schedule: Q01DX009 (ip), vehicle: other
[6] = dose: 100.0 mg/kg/injection, schedule: Q01DX009 (ip), vehicle: Klucel (hydroxypropylcellulose) (HPC)
[7] = dose: 100.0 mg/kg/injection, schedule: Q04DX003 (ip), vehicle: Klucel (hydroxypropylcellulose) (HPC)
[8] = dose: 200.0 mg/kg/injection, schedule: Q01DX009 (ip), vehicle: Klucel (hydroxypropylcellulose) (HPC)
[9] = dose: 200.0 mg/kg/injection, schedule: Q04DX003 (ip), vehicle: Klucel (hydroxypropylcellulose) (HPC)
[10] = dose: 400.0 mg/kg/injection, schedule: Q04DX003 (ip), vehicle: Klucel (hydroxypropylcellulose) (HPC)
[11] = dose: 100.0 mg/kg/injection, schedule: Q01DX001 (ip), vehicle: saline
[12] = dose: 200.0 mg/kg/injection, schedule: Q01DX001 (ip), vehicle: saline
[13] = dose: 400.0 mg/kg/injection, schedule: Q01DX001 (ip), vehicle: saline
[14] = dose: 100.0 mg/kg/injection, schedule: Q01DX009 (ip), vehicle: saline
[15] = dose: 100.0 mg/kg/injection, schedule: Q04DX003 (ip), vehicle: saline with Tween-80
[16] = dose: 200.0 mg/kg/injection, schedule: Q04DX003 (ip), vehicle: saline with Tween-80
[17] = dose: 50.0 mg/kg/injection, schedule: Q01DX009 (ip), vehicle: saline
[18] = dose: 200.0 mg/kg/injection, schedule: Q01DX009 (ip), vehicle: saline
[19] = dose: 400.0 mg/kg/injection, schedule: Q04DX003 (ip), vehicle: saline with Tween-80
[20] = dose: 12.5 mg/kg/injection, schedule: Q01DX009 (ip), vehicle: Klucel (hydroxypropylcellulose) (HPC)

Measured: T/C

CCC1(CC)NC(=O)N(CCOS(C)(=O)=O)C1=O
inactive: dose: 50.0 mg/kg/injection, schedule: Q04DX003 (ip), vehicle: saline 95 % of control | [1] 115 % of control | [2] 101 % of control | [3] 100 % of control

CCCCCCCCCCCCCCCCCCCC
inactive: dose: 25.0 mg/kg/injection, schedule: Q01DX009 (ip), vehicle: other 109 % of control | [4] 101 % of control | [5] 93 % of control

O/N=C\CCC/C=N/O
inactive: [6] 98 % of control | [7] 100 % of control | [8] 91 % of control | [9] 94 % of control | [10] 103 % of control

CCOc1ccccc1NC(=S)NC(=O)c1cccc([N+](=O)[O-])c1
inactive: [6] 100 % of control | [7] 98 % of control | [8] 96 % of control | [9] 98 % of control | dose: 400.0 mg/kg/injection, schedule: Q01DX009 (ip), vehicle: Klucel (hydroxypropylcellulose) (HPC) 96 % of control | [10] 100 % of control

CCOc1nc(OCC)c2[nH]cnc2n1
inactive: [11] 101 % of control | [12] 96 % of control | [13] 102 % of control

COC(=N)c1ccc2c(c1)OCO2
inactive: [1] 94 % of control | [2] 94 % of control | [3] 100 % of control

N#CCc1cc(Cl)ccc1OCC(=O)O
inactive: dose: 100.0 mg/kg/injection, schedule: Q04DX002 (ip), vehicle: Klucel (hydroxypropylcellulose) (HPC) 95 % of control | dose: 200.0 mg/kg/injection, schedule: Q04DX002 (ip), vehicle: Klucel (hydroxypropylcellulose) (HPC) 103 % of control | dose: 400.0 mg/kg/injection, schedule: Q04DX002 (ip), vehicle: Klucel (hydroxypropylcellulose) (HPC) 100 % of control

CCOC(CN=Cc1ccc(Cl)c(Cl)c1)OCC
inactive: [7] 94 % of control | [9] 97 % of control | [10] 96 % of control

CC(=O)NC1=C(Nc2ccc(-c3ccc(NC4=C(NC(C)=O)C(=O)c5ccccc5C4=O)cc3)cc2)C(=O)c2ccccc2C1=O
inactive: dose: 3.12 mg/kg/injection, schedule: Q04DX003 (ip), vehicle: saline 96 % of control | dose: 4.5 mg/kg/injection, schedule: Q01DX009 (ip), vehicle: saline 101 % of control | dose: 6.25 mg/kg/injection, schedule: Q04DX003 (ip), vehicle: saline 98 % of control | dose: 9.0 mg/kg/injection, schedule: Q01DX009 (ip), vehicle: saline 101 % of control | dose: 12.5 mg/kg/injection, schedule: Q01DX001 (ip), vehicle: saline 95 % of control | dose: 12.5 mg/kg/injection, schedule: Q04DX003 (ip), vehicle: saline 98 % of control | dose: 18.0 mg/kg/injection, schedule: Q04DX003 (ip), vehicle: saline 87 % of control

CO[C@H](C)[C@](O)(C(=O)OCC1=CCN2CC[C@@H](O)[C@H]12)C(C)C
inactive: dose: 65.0 mg/kg/injection, schedule: Q01DX009 (ip), vehicle: saline 95 % of control and 109 % of control | dose: 75.0 mg/kg/injection, schedule: Q01DX001 (ip), vehicle: acetone 106 % of control | [14] 95 % of control and 105 % of control | dose: 150.0 mg/kg/injection, schedule: Q01DX001 (ip), vehicle: acetone 103 % of control | dose: 150.0 mg/kg/injection, schedule: Q01DX009 (ip), vehicle: saline 94 % of control | dose: 300.0 mg/kg/injection, schedule: Q01DX001 (ip), vehicle: acetone 106 % of control

COc1c(O)cc2c(c1OC)-c1ccc(OC)c(=O)cc1C(NC=O)CC2 (stereo not drawn)
inactive: [15] 116 % of control | [16] 93 % of control

O=C(CCN1CC1)OCCCCOC(=O)CCN1CC1
inactive: dose: 2.5 mg/kg/injection, schedule: Q01DX009 (ip), vehicle: saline 113 % of control | dose: 5.0 mg/kg/injection, schedule: Q01DX009 (ip), vehicle: saline 110 % of control | dose: 6.6 mg/kg/injection, schedule: Q01DX009 (ip), vehicle: saline 94 % of control and 102 % of control | dose: 10.0 mg/kg/injection, schedule: Q01DX009 (ip), vehicle: saline 102 % of control | dose: 15.0 mg/kg/injection, schedule: Q01DX009 (ip), vehicle: saline 100 % of control and 107 % of control | dose: 20.0 mg/kg/injection, schedule: Q01DX009 (ip), vehicle: saline 104 % of control | dose: 20.0 mg/kg/injection, schedule: Q04DX003 (ip), vehicle: saline 115 % of control | dose: 40.0 mg/kg/injection, schedule: Q04DX003 (ip), vehicle: saline 104 % of control | dose: 80.0 mg/kg/injection, schedule: Q04DX003 (ip), vehicle: saline 91 % of control

Cc1cc(NC(=O)NCc2ccc(N3C(N)=NC(N)=NC3(C)C)cc2)ccc1S(=O)(=O)F
inactive: [17] 102 % of control | [14] 119 % of control | [18] 107 % of control | dose: 400.0 mg/kg/injection, schedule: Q01DX009 (ip), vehicle: saline 114 % of control

CCn1cc(C(=O)O)c(=O)c2cccc(Cl)c21
inactive: dose: 25.0 mg/kg/injection, schedule: Q04DX002 (ip), vehicle: saline 100 % of control | dose: 50.0 mg/kg/injection, schedule: Q04DX002 (ip), vehicle: saline 107 % of control | dose: 100.0 mg/kg/injection, schedule: Q04DX002 (ip), vehicle: saline 107 % of control | dose: 200.0 mg/kg/injection, schedule: Q04DX002 (ip), vehicle: saline 99 % of control | dose: 400.0 mg/kg/injection, schedule: Q04DX002 (ip), vehicle: saline 118 % of control

c1csc(Cc2cccs2)c1
inactive: [4] 112 % of control | [5] 112 % of control | dose: 200.0 mg/kg/injection, schedule: Q01DX009 (ip), vehicle: other 116 % of control

CCNC(=O)OCCc1c2ccccc2[n+]([O-])c2ccccc12
inactive: [15] 96 % of control | [16] 102 % of control | [19] 90 % of control

CP1(=O)CC2OC2C1 (stereo not drawn)
inactive: [17] 96 % of control | [14] 89 % of control | [18] 93 % of control

Cc1ccc2ccc3ccc4ccccc4c3c2c1
inactive: dose: 50.0 mg/kg/injection, schedule: Q01DX001 (ip), vehicle: Klucel (hydroxypropylcellulose) (HPC) 101 % of control | dose: 100.0 mg/kg/injection, schedule: Q01DX001 (ip), vehicle: Klucel (hydroxypropylcellulose) (HPC) 95 % of control | dose: 200.0 mg/kg/injection, schedule: Q01DX001 (ip), vehicle: Klucel (hydroxypropylcellulose) (HPC) 101 % of control

CC(=O)OCC1OC(n2cc(C)c(=O)[nH]c2=O)C(OC(C)=O)C(OC(C)=O)C1OC(C)=O (stereo not drawn)
inactive: [11] 94 % of control | [12] 105 % of control | [13] 97 % of control

C1=CCC2CSCC2C1 (stereo not drawn)
inactive: dose: 75.0 mg/kg/injection, schedule: Q01DX009 (ip), vehicle: saline sonified 98 % of control | dose: 150.0 mg/kg/injection, schedule: Q01DX009 (ip), vehicle: saline sonified 98 % of control

CC1CN1C1=C(Cl)C(=O)C(N2CC2C)=C(Cl)C1=O (stereo not drawn)
inactive: dose: 0.78 mg/kg/injection, schedule: Q01DX009 (ip), vehicle: Klucel (hydroxypropylcellulose) (HPC) 104 % of control | dose: 1.56 mg/kg/injection, schedule: Q01DX009 (ip), vehicle: Klucel (hydroxypropylcellulose) (HPC) 105 % of control | dose: 3.12 mg/kg/injection, schedule: Q01DX009 (ip), vehicle: Klucel (hydroxypropylcellulose) (HPC) 102 % of control | dose: 6.25 mg/kg/injection, schedule: Q01DX009 (ip), vehicle: Klucel (hydroxypropylcellulose) (HPC) 96 % of control | [20] 107 % of control

O=[N+]([O-])c1ccc(S(=O)(=O)SC(F)(F)F)cc1
inactive: dose: 75.0 mg/kg/injection, schedule: Q01DX001 (ip), vehicle: saline 106 % of control | dose: 150.0 mg/kg/injection, schedule: Q01DX001 (ip), vehicle: saline 102 % of control

CC(=O)C1=C(C)NC(C)=C(C(C)=O)C1c1ccccc1
inactive: [15] 96 % of control | [16] 96 % of control | [19] 98 % of control

CC(C)=CCC(C#N)(CCN1CCCC1)c1cccc2ccccc12 (stereo not drawn)
inactive: [20] 100 % of control | dose: 25.0 mg/kg/injection, schedule: Q01DX009 (ip), vehicle: Klucel (hydroxypropylcellulose) (HPC) 118 % of control | dose: 50.0 mg/kg/injection, schedule: Q01DX009 (ip), vehicle: Klucel (hydroxypropylcellulose) (HPC) 105 % of control
